Laboratory results reported in US10653667B2, “Drug for preventing, treating or preventing metastasis of giant cell tumor that occurs in bone or soft parts, chondrosarcoma, or osteosarcoma, local injection for arterial embolization, and artificial bone” (NIPPON CHEMIPHAR CO., LTD, priority 2013, dated 2020).

How the values were obtained:
[1] = system: cells of pigmented villonodular synovitis (PVNS); experiment: Fat cell differentiation of PVNS cells (HCS LipidTOX Green); type: cell-based, human; details: zaltoprofen 400 μM, compared with control
Protocol: (§1) It has been reported that PPARγ is a transcription factor indispensable for fat cell differentiation. Therefore, the GCTB cultured cells of the aforementioned case 1 were cultured on chamber cover slide glass, and when they reached confluent, zaltoprofen was added to the cells at various concentrations (10, 50, and 100 μM). From 24 hours thereafter, the cells were cultured in a fat cell differentiation-inducing medium (STREMPRO Adipogenesis Differentiation Kit, Invitrogen) for 7 to 14 days, and differentiation into fat cells was analyzed with HCS Lipid TOX Green Neutral Lipid Stain (Invitrogen) (FIGS. 8 and 9).
(§2) It has been reported that PPARγ is a transcription factor indispensable for fat cell differentiation. Therefore, in the same manner as that of Example 3, zaltoprofen was added at a concentration of 400 μM to the cells of giant cell tumor of tendon sheath (GCTT) or cells of pigmented villonodular synovitis (PVNS), and differentiation into fat cells was analyzed (FIGS. 30 and 31). As a result, it was successfully confirmed that the positive images obtained with HCS LipidTOX Green increased in the zaltoprofen-added cells compared with the control.

giant cell tumor of bone = experiment: Curative effect of zaltoprofen (Soleton Tablet) on patients with giant cell tumor of bone; type: in vivo, human
Protocol: Soleton Tablet 80 (generic name: zaltoprofen, 80 mg, Nippon Chemiphar) was administered to a patient with giant cell tumor of bone (GCTB), patient with giant cell tumor of tendon sheath (GCTT), or patient with pigmented villonodular synovitis (PVNS) at a dose of 3 tablets per day (one tablet was administered in the morning, at noon, and in the evening), and the tumor size was evaluated by MRI every several months.
Soleton Tablet 80 (generic name: zaltoprofen, 80 mg, Nippon Chemiphar) was administered to patients with giant cell tumor of bone at a dose of 3 tablets per day (one tablet was administered in the morning, at noon, and in the evening). Four weeks after the start of the administration, the tumor size was evaluated by imaging based on simple Roentgen contrast method, X-ray CT, and MRI (nuclear magnetic resonance imaging). Then, the tumors were excised from patients for whom surgical operation was possible, administration of zaltoprofen was continued at a dose of 240 mg per day (one 80 mg tablet was administered at the time of breakfast, lunch, and supper), and the tumor size was evaluated by imaging based on simple Roentgen contrast method, X-ray CT, and MRI (nuclear magnetic resonance imaging) every 16 weeks. Also for patients for whom surgical operation was difficult, administration of zaltoprofen was continued at a dose of 240 mg per day (one 80 mg tablet was administered at the time of breakfast, lunch, and supper), and the tumor size was evaluated by imaging based on simple Roentgen contrast method, X-ray CT, and MRI (nuclear magnetic resonance imaging) every 8 weeks.

[2] = system: PPARγ expression in GCTB cultured cells; experiment: PPARγ immunostaining of GCTB cultured cells; type: cell-based, human; details: zaltoprofen 10, 50, 100, 200 μM; 24 hours; about 15% in the control
Protocol: The GCTB cultured cells of the aforementioned case 1 were cultured on chamber cover slide glass, and 24 hours thereafter, zaltoprofen was added at various concentrations (10, 50, 100, and 200 μM). After 24 hours, the cells were fixed with 4% paraformaldehyde, and immunohistochemical staining of PPARγ was performed. The PPARγ protein was fluorescently detected by using the antibody SC-7273 of Santa Cruz Biotechnology, Inc. as the primary antibody and the rat anti-mouse IgG FITC (11-4011-85) of eBioscience as the secondary antibody. Observation was performed with a fluorescence microscope (BZ-9000) of Keyence, and positive images for each concentration were quantitatively observed (FIGS. 6 and 7).

[3] = system: giant cell tumor of bone (GCTB); experiment: Apoptosis analysis of operational excision sample of GCTB patient administered with zaltoprofen; type: in vivo, human
Protocol: An operational excision sample of a person who had been administered with 3 tablets per day of the zaltoprofen tablets, Soleton Tablet 80 (generic name: zaltoprofen, 80 mg, Nippon Chemiphar) for about 28 days for pain due to the tumor, and then subjected to the operation, and an operational excision sample of giant cell tumor of bone extracted from a patient with giant cell tumor of bone not administered with zaltoprofen (case in which tumor was excised by usual surgical operation according to standard therapy) as a control were subjected to caspase 3 staining and Tunel assay, and analyzed for the presence or absence of apoptosis. The caspase 3 protein was fluorescently detected by using Anti-ACTIVE Caspase-3-Ab (Roche) ([…]) (12-4739-81) as the primary antibody, and Donkey F2 Fragment anti-Rabbit IgG PE of eBioscience as the secondary antibody. Observation was performed with a fluorescence microscope (BZ-9000) produced by Keyence (FIG. 10).

[4] = system: cells of giant cell tumor of tendon sheath (GCTT); experiment: Fat cell differentiation of GCTT cells (HCS LipidTOX Green); type: cell-based, human; details: zaltoprofen 400 μM, compared with control
Protocol: as §1, §2

[5] = system: GCTB cultured cells of the case 1; experiment: Tunel assay and caspase 3 staining of GCTB cultured cells (apoptosis); type: cell-based, human; details: zaltoprofen 100 and 200 μM; 8 hours and 24 hours
Protocol: Further, the aforementioned GCTB cultured cells of the case 1 mentioned above were cultured on chamber cover slide glass, and zaltoprofen was added at different concentrations (100, and 200 μM) 24 hours afterward. Then, 8 hours and 24 hours afterward, the cells were fixed with 4% paraformaldehyde, staining with caspase 3 and Tunel assay were performed, and presence or absence of apoptosis was analyzed. In the Tunel assay, fragmented DNAs produced in the process of apoptosis were detected by the TdT-mediated dUTP nick end labeling method (TUNEL). Observation was performed with a fluorescence microscope (BZ-9000) of Keyence, and positive images for each concentration were quantitatively observed (FIGS. 2 to 5).

H-EMC-SS cells = experiment: Suppression of cell proliferation of chondrosarcoma cell line H-EMC-SS (CCK-8); type: cell-based, human; details: drug at various concentrations
Source text: The H-EMC-SS cells were obtained from the Riken BioResource Center.
The H-EMC-SS cells were obtained from the Riken BioResource Center. As the SW1353 cells, those obtained from ATCC were used.

[6] = system: cultured cells of giant cell tumor of tendon sheath (GCTT); experiment: Suppression of cell proliferation of GCTT cultured cells (CCK-8); type: cell-based, human; details: drug at various concentrations, CCK-8 24 hours after addition
[7] = among the 13 cases of GCTB, zaltoprofen 240 mg per day
[8] = GCTB patient, 3 tablets per day Soleton Tablet 80 for about 28 days, vs patient not administered

CC(C(=O)O)c1ccc2c(c1)CC(=O)c1ccccc1S2 (stereo not shown) [zaltoprofen]
positive images obtained with HCS LipidTOX Green (differentiation into fat cells) [1]: increased | response evaluation (giant cell tumor of bone; GCTB case a): PR (“partial response (PR)” means a state that the total of sizes of tumor has decreased by 30% or more) | shrinkage of tumor size (giant cell tumor of bone; GCTB case a (person, pelvis)): more than 70% | recurrence after excision by surgical operation (giant cell tumor of bone; GCTB case a, up to today): no recurrence has been observed | diameter of the giant cell tumor of bone after taking zaltoprofen (giant cell tumor of bone; GCTB case c, proximal part of left fibula, about nine weeks, 23.3 mm before): 21.0 mm | diameter of the giant cell tumor of bone after taking zaltoprofen (giant cell tumor of bone; GCTB case d, distal part of right tibia, about eight weeks, 21.7 mm before): 20.5 mm | change of giant cell tumor of bone (giant cell tumor of bone; GCTB case g): did not shrink, but it also did not grow | KPS score after taking zaltoprofen (giant cell tumor of bone; GCTB case g, score 80 before): 100 | growth of the giant cell tumor of bone (giant cell tumor of bone; GCTB case j (Zometa and artery embolization used in combination)): about 6% | KPS score after taking zaltoprofen (giant cell tumor of bone; GCTB case j, score 50 before): 90 | growth of the giant cell tumor of bone (giant cell tumor of bone; GCTB case k): about 10% | KPS score after taking zaltoprofen (giant cell tumor of bone; GCTB case k, score 80 before): 90 | increase of the size of the giant cell tumor of bone (giant cell tumor of bone; GCTB case l (printed case 1; left knee part), took only about a half of the prescribed dose): 19.8% | response evaluation (giant cell tumor of bone; GCTB case m (printed case in; person, proximal part of right tibia, multiple metastases to the lung)): PD (“progressive disease (PD)” means a state that the total of sizes of tumor has increased by 20% or more, and increased by 5 mm or more in terms of absolute value, or a state that new lesion has appeared) | KPS score after taking zaltoprofen (giant cell tumor of bone; GCTB case m, score 90 before): 100 | number of cases with hardening of bones on X-ray CT images (giant cell tumor of bone; GCTB cases a, b, d, g, i, and j): 6 cases | KPS score after taking zaltoprofen (giant cell tumor of bone; GCTB cases a, c, and d, score 80 before): 90 | change of giant cell tumors of bone (giant cell tumor of bone; GCTB cases a, c, d, e, and f, no treatment except zaltoprofen): shrank | new metastasis during the taking of zaltoprofen (giant cell tumor of bone; GCTB patients): any new metastasis of giant cell tumor of bone was not observed | recurrence during the taking of zaltoprofen after ablative operation (giant cell tumor of bone; GCTB patients subjected to ablative operation): no recurrence of giant cell tumor of bone could be confirmed | number of cases diagnosed partial response (PR) (giant cell tumor of bone; [7]): one | number of cases diagnosed progressive disease (PD) (giant cell tumor of bone; [7]): one | cases in which the KPS score worsened (giant cell tumor of bone; cases of giant cell tumor of bone who took zaltoprofen): no case in which the KPS score worsened | MRI finding indicated by arrows (giant cell tumor of bone; recurrence of GCTB in the pelvic part (case a), after two months (FIG. 35) and four months (FIG. 36)): tumor necrosis region | tumor size by MRI (giant cell tumor of bone; recurrence of GCTB in the pelvic part (person; case a), 3 tablets per day, after two months and four months): gradual shrinkage of the tumor | expression of PPARγ (ratio of PPARγ-positive cells) [2]: increased in a zaltoprofen concentration-dependent manner | cells found in excised bone tissues at ablative operation ([3]; GCTB patient who had taken zaltoprofen over four weeks at 240 mg per day, fat cell-like cells existed instead): cells characteristic to bone giant cells did not exist in the excised bone tissues | Tunel-positive cells in excision sample [3, 8]: could be confirmed | caspase 3-positive cells in excision sample [3, 8]: could be confirmed | positive images obtained with HCS LipidTOX Green (differentiation into fat cells) [4]: increased | Tunel-positive ratio [5]: concentration and administration time-dependent increases | caspase 3-positive ratio [5]: concentration and administration time-dependent increases | suppression of cell proliferation (absorbance at 450 nm) (H-EMC-SS cells): cell proliferation was suppressed | suppression of cell proliferation (absorbance at 450 nm) [6]: cell proliferation was suppressed
